Reference: patent publication US20140045823A1 (Neurocrine Biosciences, Inc., priority 2012, published 2014)
Each block holds one compound with its values, some of them ahead of it.

Molecular target: T1, human GPR119 (Homo sapiens, UniProt Q8TDV5)
T1 construct: expression vector for human GPR119 cDNA (Acc. No. NP_848566); expressed in transfected cells; Min-6/hGPR119
T1 sequence (Q8TDV5 1-335): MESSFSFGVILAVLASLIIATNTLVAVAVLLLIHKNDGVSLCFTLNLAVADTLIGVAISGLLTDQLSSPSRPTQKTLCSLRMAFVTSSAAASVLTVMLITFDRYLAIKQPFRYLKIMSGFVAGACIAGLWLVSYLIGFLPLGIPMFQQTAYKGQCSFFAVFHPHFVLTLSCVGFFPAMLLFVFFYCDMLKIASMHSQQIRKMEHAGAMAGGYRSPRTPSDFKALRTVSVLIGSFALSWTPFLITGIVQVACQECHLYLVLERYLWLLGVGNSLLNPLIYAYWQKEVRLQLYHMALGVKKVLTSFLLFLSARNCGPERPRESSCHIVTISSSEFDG
Assay: AlphaScreen cAMP assay in MIN6 cells stably transfected with human GPR119
Assay type: cell-based
Conditions: Min-6/hGPR119 cells, 45 min at room temperature
Experimental: The compounds of formula I according to the invention modulate the activity of the G-protein-coupled receptor GPR119. The effect of the compounds on the activation of GPR119 and on the stimulation of intracellular cAMP concentration is determined using the AlphaScreen cAMP Assay Kit (Cat. No. #6760625R) made by PerkinElmer.
MIN6 cells [Miyazaki J et al. Endocrinology. 1990 July; 127(1):126-32] are stably transfected with an expression vector for human GPR119 cDNA (Acc. No. NP_848566). Min-6/hGPR119 cells are cultured in DMEM, 10% FBS, 50 μM β-mercaptoethanol, 0.3 mg/mL Geniticin, 2 mM GlutaMAX at 37° C. 5% CO2. For the assay, the cells are seeded in Optiplates (white, 384-well, 160 W—barcoded, TC, sterile with lid, Cat. No. #6007688 (Perkin Elmer); 10000 cells/well; 50 μl). The plates covered with lids are then incubated for 24 hours at 37° C./5% CO2. After the medium is aspirated from the wells completely, 10 μl of the test compound are added, the compounds are diluted using stimulating buffer (140 mM NaCl, 3.6 mM KCl, 0.5 mM NaH2PO4, 0.5 mM MgSO4, 1.5 mM CaCl2, 10 mM Hepes, 5 mM NaHCO3; pH 7.4. 0.5 mM IBMX and 0.1% BSA, the final DMSO concentration is 1%). After 45 minutes incubation at room temperature (approx. 20° C.), the cAMP concentrations are determined using the AlphaScreen cAMP Assay Kit (Cat. No. #6760625R from PerkinElmer).

Structure (SMILES): Cc1ncoc1-c1ccc(C(=O)N(C2CC2)C2CCN(C(=O)OC(C)(C)C)CC2)cn1 [Example 13, 4-{Cyclopropyl-[6-(4-methyl-oxazol-5-yl)-pyridine-3-carbonyl]amino}-piperidine-1-carboxylic acid tert-butyl ester]
EC50: 132 nM

Structure (SMILES): CC(C)(C)OC(=O)N1CCC(N(C(=O)c2cnc(-c3cnco3)c(F)c2)C2CC2)CC1 [Example 14, 4-[Cyclopropyl-(5-fluoro-6-oxazol-5-yl-pyridine-3-carbonyl)-amino]-piperidine-1-carboxylic acid tert-butyl ester]
EC50: 145 nM

Structure (SMILES): COC(=O)c1ccc(-n2cnc(C(=O)N(C3CC3)C3CCN(C(=O)OC(C)(C)C)CC3)c2)c(F)c1 [Example 15, 4-{Cyclopropyl-[1-(2-fluoro-4-methoxycarbonyl-phenyl)-1H-imidazole-4-carbonyl]-amino}-piperidine-1-carboxylic acid tert-butyl ester]
EC50: 157 nM

Structure (SMILES): CC(C)(C)OC(=O)N1CCC(N(C(=O)c2cn(-c3ccc(C#N)cc3F)cn2)C2CC2)CC1 [Example 16, 4-{[1-(4-Cyano-2-fluoro-phenyl)-1H-imidazole-4-carbonyl]-cyclopropyl-amino}-piperidine-1-carboxylic acid tert-butyl ester]
EC50: 66 nM

Structure (SMILES): CC(C)(C)OC(=O)N1CCC(N(C(=O)c2cn(-c3ccc(S(C)(=O)=O)cc3)cn2)C2CC2)CC1 [Example 17, 4-{Cyclopropyl-[1-(4-methanesulfonyl-phenyl)-1H-imidazole-4-carbonyl]-amino}-piperidine-1-carboxylic acid tert-butyl ester]
EC50: 680 nM

Structure (SMILES): CC(C)(C)OC(=O)N1CCC(N(C(=O)c2noc(-c3ccc(C#N)cc3F)n2)C2CC2)CC1 [Example 18, 4-{[5-(4-Cyano-2-fluoro-phenyl)-[1,2,4]oxadiazole-3-carbonyl]-cyclopropyl-amino}-piperidine-1-carboxylic acid tert-butyl ester]
EC50: 5 nM

Structure (SMILES): CC(C)(C)OC(=O)N1CCC(N(C(=O)c2noc(-c3ccc(S(C)(=O)=O)cc3F)n2)C2CC2)CC1 [Example 19, 4-{Cyclopropyl-[5-(2-fluoro-4-methanesulfonyl-phenyl)-[1,2,4]oxadiazole-3-carbonyl]-amino}-piperidine-1-carboxylic acid tert-butyl ester]
EC50: 21 nM

Structure (SMILES): CC(C)(C)OC(=O)N1CCC(N(C(=O)c2noc(-c3ccc(C#N)c(F)c3)n2)C2CC2)CC1 [Example 20, 4-{[5-(4-Cyano-3-fluoro-phenyl)-[1,2,4]oxadiazole-3-carbonyl]-cyclopropyl-amino}-piperidine-1-carboxylic acid tert-butyl ester]
EC50: 7 nM

Structure (SMILES): CC(C)(C)OC(=O)N1CCC(N(C(=O)c2noc(-c3ccc(S(C)(=O)=O)c(F)c3)n2)C2CC2)CC1 [Example 21, 4-{Cyclopropyl-[5-(3-fluoro-4-methanesulfonyl-phenyl)-[1,2,4]oxadiazole-3-carbonyl]-amino}-piperidine-1-carboxylic acid tert-butyl ester]
EC50: 33 nM

Structure (SMILES): CC(C)(C)OC(=O)N1CCC(N(C(=O)c2nc(-c3ccc(Br)cc3F)no2)C2CC2)CC1 [Example 22, 4-{[3-(4-Bromo-2-fluoro-phenyl)-[1,2,4]oxadiazole-5-carbonyl]-cyclopropyl-amino}-piperidine-1-carboxylic acid tert-butyl ester]
EC50: 210 nM

Structure (SMILES): CC(C)(C)OC(=O)N1CCC(N(C(=O)c2coc(-c3ccc(C#N)cc3F)n2)C2CC2)CC1 [Example 23, 4-{[2-(4-Cyano-2-fluoro-phenyl)-oxazole-4-carbonyl]-cyclopropyl-amino}-piperidine-1-carboxylic acid tert-butyl ester]
EC50: 18 nM

Structure (SMILES): CC(C)(C)OC(=O)N1CCC(N(C(=O)c2coc(-c3ccc(C#N)c(F)c3)n2)C2CC2)CC1 [Example 24, 4-{[2-(4-Cyano-3-fluoro-phenyl)-oxazole-4-carbonyl]-cyclopropyl-amino}-piperidine-1-carboxylic acid tert-butyl ester]
EC50: 42 nM

Results, then the compound that gave them:

EC50: 97 nM
Structure (SMILES): CC(C)(C)OC(=O)N1CCC(N(C(=O)c2coc(-c3ccc(S(C)(=O)=O)cc3F)n2)C2CC2)CC1 [Example 25]

EC50: 360 nM
Structure (SMILES): CCNC(=O)c1ccc(-c2nc(C(=O)N(C3CC3)C3CCN(C(=O)OC(C)(C)C)CC3)co2)cc1 [Example 26, 4-{Cyclopropyl-[2-(4-ethylcarbamoyl-phenyl)-oxazole-4-carbonyl]-amino}-piperidine-1-carboxylic acid tert-butyl ester]

EC50: 1800 nM
Structure (SMILES): CC(C)(C)OC(=O)N1CCC(N(C(=O)c2coc(-c3cnco3)n2)C2CC2)CC1 [Example 27, 4-[([2,5′]Bioxazolyl-4-carbonyl)-cyclopropyl-amino]-piperidine-1-carboxylic acid tert-butyl ester]

EC50: 159 nM
Structure (SMILES): CC(C)(C)OC(=O)N1CCC(N(C(=O)c2coc(-c3ccc(S(C)(=O)=O)c(F)c3)n2)C2CC2)CC1 [Example 28, 4-{Cyclopropyl-[2-(3-fluoro-4-methanesulfonyl-phenyl)-oxazole-4-carbonyl]-amino}-piperidine-1-carboxylic acid tert-butyl ester]

EC50: 118 nM
Structure (SMILES): CC(C)(C)OC(=O)N1CCC(N(C(=O)c2coc(-c3ccc(C#N)cc3)n2)C2CC2)CC1 [Example 29, 4-{[2-(4-Cyano-phenyl)-oxazole-4-carbonyl]-cyclopropyl-amino}-piperidine-1-carboxylic acid tert-butyl ester]

EC50: 176 nM
Structure (SMILES): CC(C)(C)OC(=O)N1CCC(N(C(=O)c2cnc(-c3ccc(S(C)(=O)=O)cc3F)o2)C2CC2)CC1 [Example 30, 4-{Cyclopropyl-[2-(2-fluoro-4-methanesulfonyl-phenyl)-oxazole-5-carbonyl]-amino}-piperidine-1-carboxylic acid tert-butyl ester]

EC50: 48 nM
Structure (SMILES): CC(C)(C)OC(=O)N1CCC(N(C(=O)c2cnc(-c3ccc(C#N)cc3F)o2)C2CC2)CC1 [Example 31, 4-{[2-(4-Cyano-2-fluoro-phenyl)-oxazole-5-carbonyl]-cyclopropyl-amino}-piperidine-1-carboxylic acid tert-butyl ester]

EC50: 35 nM
Structure (SMILES): CC(C)(C)OC(=O)N1CCC(N(C(=O)c2cnc(-c3ccc(C#N)c(F)c3)o2)C2CC2)CC1 [Example 32, 4-{[2-(4-Cyano-3-fluoro-phenyl)-oxazole-5-carbonyl]-cyclopropyl-amino}-piperidine-1-carboxylic acid tert-butyl ester]

EC50: 639 nM
Structure (SMILES): CC(C)(C)OC(=O)N1CCC(N(C(=O)c2cnc(-c3cnco3)o2)C2CC2)CC1 [Example 33, 4-[([2,5′]Bioxazolyl-5-carbonyl)-cyclopropyl-amino]-piperidine-1-carboxylic acid tert-butyl ester]

EC50: 86 nM
Structure (SMILES): CC(C)(C)OC(=O)N1CCC(N(C(=O)c2cnc(-c3ccc(S(C)(=O)=O)c(F)c3)o2)C2CC2)CC1 [Example 34, 4-{Cyclopropyl-[2-(3-fluoro-4-methanesulfonyl-phenyl)-oxazole-5-carbonyl]-amino}-piperidine-1-carboxylic acid tert-butyl ester]

EC50: 136 nM
Structure (SMILES): CC(C)(C)OC(=O)N1CCC(N(C(=O)c2cnc(-c3ccc(C#N)cc3)o2)C2CC2)CC1 [Example 35, 4-{[2-(4-Cyano-phenyl)-oxazole-5-carbonyl]-cyclopropyl-amino}-piperidine-1-carboxylic acid tert-butyl ester]

EC50: 358 nM
Structure (SMILES): CC(C)(C)OC(=O)N1CCC(N(C(=O)c2ncc(-c3ccc(S(C)(=O)=O)cc3)o2)C2CC2)CC1 [Example 36, 4-{Cyclopropyl-[5-(4-methanesulfonyl-phenyl)-oxazole-2-carbonyl]-amino}-piperidine-1-carboxylic acid tert-butyl ester]

EC50: 142 nM
Structure (SMILES): CC(C)(C)OC(=O)N1CCC(N(C(=O)c2ncc(-c3ccc(C#N)cc3)o2)C2CC2)CC1 [Example 37, 4-{[5-(4-Cyano-phenyl)-oxazole-2-carbonyl]-cyclopropyl-amino}-piperidine-1-carboxylic acid tert-butyl ester]

EC50: 9 nM
Structure (SMILES): CC(C)(C)OC(=O)N1CCC(N(C(=O)c2cc(-c3ccc(C#N)cc3)on2)C2CC2)CC1 [Example 38, 4-{-[5-(4-Cyano-phenyl)-isoxazole-3-carbonyl]-cyclopropyl-amino}-piperidine-1-carboxylic acid tert-butyl ester]

EC50: 3 nM
Structure (SMILES): CC(C)(C)OC(=O)N1CCC(N(C(=O)c2cc(-c3ccc(C#N)cc3F)on2)C2CC2)CC1 [Example 39, 4-{[5-(4-Cyano-2-fluoro-phenyl)-isoxazole-3-carbonyl]-cyclopropyl-amino}-piperidine-1-carboxylic acid tert-butyl ester]
